Measurements as given in patent US4777182A, “6-Amidino-2-naphthyl 4-guanidinobenzoate derivatives and pharmaceutical composition containing them” (Torii & Co., Ltd., priority 1984, dated 1988).
Several values for one entry are separate records, joined by “and”; a condition that tells them apart may be missing. Equal entries are not always repeated. Where two headings read alike, the source gives them in different places.

Columns and labels:
[1] = molecular target: T1, Trypsin (Bos taurus, UniProt P00760); assay: Anti-trypsin activity (inhibition of TAME hydrolysis); type: biochemical; conditions: read-out: ID50, Trypsin
T1 sequence (P00760 24-246): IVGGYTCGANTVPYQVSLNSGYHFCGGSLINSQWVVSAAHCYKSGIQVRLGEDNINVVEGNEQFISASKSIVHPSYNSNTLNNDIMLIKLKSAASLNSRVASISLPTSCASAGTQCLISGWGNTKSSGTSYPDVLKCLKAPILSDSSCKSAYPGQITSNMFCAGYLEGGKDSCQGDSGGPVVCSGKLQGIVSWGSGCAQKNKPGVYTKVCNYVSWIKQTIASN

[2] = molecular target: Plasmin (Homo sapiens, UniProt P00747); assay: Anti-plasmin activity (inhibition of TAME hydrolysis); type: biochemical
[3] = test system: Kallikrein; assay: Anti-kallikrein activity (inhibition of TAME hydrolysis); type: biochemical; conditions: read-out: ID50, Kallikrein
[4] = molecular target: Thrombin (Homo sapiens, UniProt P00734); assay: biochemical; conditions: for IC50: TAME hydrolysis, read-out: ID50, Thrombin
[5] = molecular target: T2, C1r (Homo sapiens, UniProt P00736); assay: Anti-C1r activity (inhibition of AAME hydrolysis); type: biochemical; conditions: for inhibition at 10 µM: at 1×10^-5 M, read-out: percent inhibition, C1r (figure in parentheses)
T2 sequence (P00736 18-463 limits assumed): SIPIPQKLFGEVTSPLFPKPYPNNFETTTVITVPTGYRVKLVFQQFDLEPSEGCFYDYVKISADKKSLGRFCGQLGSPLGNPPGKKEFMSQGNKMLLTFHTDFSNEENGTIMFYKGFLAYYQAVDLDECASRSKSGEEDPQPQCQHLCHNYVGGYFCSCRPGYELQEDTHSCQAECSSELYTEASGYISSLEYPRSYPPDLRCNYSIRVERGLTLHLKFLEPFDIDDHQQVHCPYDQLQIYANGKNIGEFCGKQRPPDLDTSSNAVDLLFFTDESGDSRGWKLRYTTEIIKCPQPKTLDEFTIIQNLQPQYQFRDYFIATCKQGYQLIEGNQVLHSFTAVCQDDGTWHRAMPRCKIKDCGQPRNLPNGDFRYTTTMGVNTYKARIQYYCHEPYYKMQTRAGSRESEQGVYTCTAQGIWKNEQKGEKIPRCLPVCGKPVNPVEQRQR
T2 sequence (P00736 464-705 limits assumed): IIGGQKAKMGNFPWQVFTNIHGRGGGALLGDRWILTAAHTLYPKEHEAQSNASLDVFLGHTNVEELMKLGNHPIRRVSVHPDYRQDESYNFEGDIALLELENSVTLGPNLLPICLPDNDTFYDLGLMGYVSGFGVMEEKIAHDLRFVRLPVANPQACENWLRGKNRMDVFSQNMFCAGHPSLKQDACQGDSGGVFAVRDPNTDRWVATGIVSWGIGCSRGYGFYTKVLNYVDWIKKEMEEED
Procedure: The anti-C1 esterase (C1r, C1s) activity was determined according to the method of Okamura et al. [K. Okamura, M. Muramatsu and B. Fujii, Biochem. Biophys. Acta, 295, 252-257 (1973)]. (2) The inhibition of complement mediated hemolysis was determined according to the method of Baker et al. [B. R. Baker and E. H. Erickson, J. Med. Chem., 12, 408-414 (1969)]. The figures in Table 2 have the following meanings: C1r: […]

[6] = molecular target: T3, C1s (Homo sapiens, UniProt P09871); assay: Anti-C1s activity (inhibition of ATEE hydrolysis); type: biochemical; conditions: read-out: ID50, C1s
T3 sequence (P09871 16-437 limits assumed): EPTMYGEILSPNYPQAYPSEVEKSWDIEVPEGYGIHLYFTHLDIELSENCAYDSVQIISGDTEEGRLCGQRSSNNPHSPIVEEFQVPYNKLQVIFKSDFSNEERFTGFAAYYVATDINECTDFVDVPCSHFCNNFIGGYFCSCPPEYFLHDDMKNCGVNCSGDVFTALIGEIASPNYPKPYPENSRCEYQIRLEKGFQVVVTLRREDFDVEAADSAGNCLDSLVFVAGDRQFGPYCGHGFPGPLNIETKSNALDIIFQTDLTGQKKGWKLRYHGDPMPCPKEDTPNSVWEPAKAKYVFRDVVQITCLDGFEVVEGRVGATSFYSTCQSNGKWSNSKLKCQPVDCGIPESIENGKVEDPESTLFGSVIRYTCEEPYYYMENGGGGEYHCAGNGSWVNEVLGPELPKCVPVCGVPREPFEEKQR
T3 sequence (P09871 438-688 limits assumed): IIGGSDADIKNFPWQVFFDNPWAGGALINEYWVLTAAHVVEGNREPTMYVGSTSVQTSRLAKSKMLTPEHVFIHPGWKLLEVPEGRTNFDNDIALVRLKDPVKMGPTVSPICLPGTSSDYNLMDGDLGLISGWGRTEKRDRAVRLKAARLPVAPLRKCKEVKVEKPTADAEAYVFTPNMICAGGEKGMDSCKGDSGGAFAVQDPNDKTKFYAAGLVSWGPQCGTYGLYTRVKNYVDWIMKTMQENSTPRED
Procedure: The anti-C1 esterase (C1r, C1s) activity was determined according to the method of Okamura et al. [K. Okamura, M. Muramatsu and B. Fujii, Biochem. Biophys. Acta, 295, 252-257 (1973)]. (2) The inhibition of complement mediated hemolysis was determined according to the method of Baker et al. [B. R. Baker and E. H. Erickson, J. Med. Chem., 12, 408-414 (1969)]. The figures in Table 2 have the following meanings:
C1s: Molar concentration of the test compound which inhibits 50% of the ability of C1s to hydrolyse ATEE (acetyltyrosin ethyl ester) (ID50).

[7] = test system: complement mediated hemolysis; assay: Inhibition of complement mediated hemolysis; type: cell-based
Excerpt: Therefore, when a known amount of complement admixed with a C1 esterase inhibitor is used, the hemolysis must be suppressed in proportion to the inhibitory activity.

[8] = test system: Forssman shock; assay: Forssman shock; type: in vivo; conditions: guinea pig, 100 mg/kg orally before i.v. hemolysin, individual animals; for time elapsed until death: 100 mg/kg
Excerpt: Quite different from other animals, guinea pig has on the surface of its organs a specific antigen called Forssman antigen which specifically reacts with the antibody of sheep erythrocyte. Forssman shock is based on the above principle and is a shock caused by the administration of antibody of sheep erythrocyte to a guinea pig. The Forssman shock was investigated in detail by many researches and it was definitely shown that this shock is a model case where the complement plays the principal part and that the shock is associated with a classical pathway in which the complement system is activated progressively starting from C1. Since the participation of complement in autoimmune diseases has been established, the Forssman shock can be said to be useful means for testing a drug for autoimmune diseases. A drug effective for the treatment of Forssman shock is useful as a drug of autoimmune diseases.
The experiment was performed according to the method of I. G. Offerness et al. [Biochem. Pharmacol., 27 (14), 1873-1878 (1978)]. Male Hartley guinea pigs of about 350 g in body weight were used. Each guinea pig of the control group was administered intravenously with hemolysin (minimum dose to cause the shock) (commercial hemolysin, 5,000 U as assayed by the method of Ogata) and the time elapsed until death was observed. Each guinea pig of the treated group was administered intravenously with hemolysin after the animal was administered orally with compounds (100 mg/kg) and the time elapsed until death was observed.

[9] = Toxicity (median lethal dose); conditions: in vivo, mouse
[10] = TAME hydrolysis, read-out: ID50, Plasmin

Plasmin, sequence (P00747 97-580 limits assumed, species assumed): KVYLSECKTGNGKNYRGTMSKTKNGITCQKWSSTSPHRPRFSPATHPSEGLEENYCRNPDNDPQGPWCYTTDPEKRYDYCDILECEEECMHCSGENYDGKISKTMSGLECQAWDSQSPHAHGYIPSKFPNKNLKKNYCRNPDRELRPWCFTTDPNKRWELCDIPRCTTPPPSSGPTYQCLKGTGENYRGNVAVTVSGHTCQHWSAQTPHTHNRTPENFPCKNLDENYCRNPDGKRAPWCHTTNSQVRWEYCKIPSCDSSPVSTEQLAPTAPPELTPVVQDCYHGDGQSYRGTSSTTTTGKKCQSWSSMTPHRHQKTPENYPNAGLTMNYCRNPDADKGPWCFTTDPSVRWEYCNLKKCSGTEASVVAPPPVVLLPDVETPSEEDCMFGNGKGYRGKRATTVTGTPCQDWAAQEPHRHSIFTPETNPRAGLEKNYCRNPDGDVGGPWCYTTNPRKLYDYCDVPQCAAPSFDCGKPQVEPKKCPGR
Plasmin, sequence (P00747 581-810 limits assumed, species assumed): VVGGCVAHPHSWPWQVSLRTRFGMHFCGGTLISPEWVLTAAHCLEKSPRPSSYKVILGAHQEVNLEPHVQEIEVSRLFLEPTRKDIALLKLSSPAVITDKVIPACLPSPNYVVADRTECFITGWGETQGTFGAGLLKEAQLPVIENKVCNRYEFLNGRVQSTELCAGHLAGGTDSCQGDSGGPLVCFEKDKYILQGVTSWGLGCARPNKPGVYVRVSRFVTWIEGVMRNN

Structure (SMILES) | IC50 [1] [nM] | IC50 [2, 10] [nM] | IC50 [3] [nM] | IC50 [4] [nM] | inhibition at 10 µM [5] [%] | IC50 [6] [nM] | Inhibition of complement mediated hemolysis (%) ([7]; 1 × 10^-5) | Inhibition of complement mediated hemolysis (%) ([7]; 1 × 10^-6) | Inhibition of complement mediated hemolysis (%) ([7]; 1 × 10^-7) | Survival (instead of time elapsed until death) [8] | time elapsed until death [8] | IC50 [2] [nM] | LD50 ([9]; iv, I.V.) [mg/kg] | LD50 ([9]; po, P.O.) [mg/kg] | IC50 ([5]; AAME hydrolysis, read-out: ID50, C1r) [nM] | inhibition at 10 µM ([4]; at 1×10^-5 M, read-out: percentage inhibition, Thrombin (figure in parentheses)) [%]
CN=C(NC)Nc1ccc(C(=O)Oc2ccc3cc(C(=N)N)ccc3c2)cc1 [Compound No. 1, 6-amidino-2-naphthyl 4-(2,3-dimethyl)guanidino-benzoate] | 10000 | 800 | 700 | 9000 | 32 | 400 | 97 | 70 | 6 | Survival | 1291 s and 390 s and 504 s and 613 s and 404 s and 868 s | – | – | – | – | –
N=C(N)c1ccc2cc(OC(=O)c3ccc(NC4=NCCN4)cc3)ccc2c1 [Compound No. 2, 6-amidino-2-naphthyl 4-(2-imidazolinyl)amino-benzoate] | 1000 | – | – | – | 35 | 700 | 100 | 91 | 29 | – | 1108 s and 1255 s and 980 s and 855 s | 2000 | 19 | > 3000 | – | –
N=C(NCCO)Nc1ccc(C(=O)Oc2ccc3cc(C(=N)N)ccc3c2)cc1 [compound 15] | 2000 | 2000 | 1000 | 1000 | – | 900 | 96 | 52 | 6 | – | – | – | – | – | 5000 | –
CC(=O)NCCNC(=N)Nc1ccc(C(=O)Oc2ccc3cc(C(=N)N)ccc3c2)cc1 [compound 16] | 4000 | 900 | 3000 | – | 35 | 3000 | 100 | 89 | 25 | – | – | – | – | – | – | 49
N=C(NCCOCc1ccccc1)Nc1ccc(C(=O)Oc2ccc3cc(C(=N)N)ccc3c2)cc1 [compound 18] | 2000 | 600 | 2000 | 5000 | 37 | 2000 | 100 | 100 | 46 | – | – | – | – | – | – | –
